Reference: patent EP0104070A2, “Fungicidal N-phenylcarbamates” (priority 1982, dated 1984)
Where two headings read alike, the source gives them in different places.

Experiments:
[1] = tested on: drug-sensitive strain of Sphaerotheca fuliginea; details: Podosphaera fuliginea, in Cucumis sativus, 240 h, read-out: Prevention value when inoculated with drug-sensitive strain (%)
Method: (§2) Protective activity test on powdery mildew of cucumber (Sphaerotheca fuliginea):-A flower pot of 90 ml volume was filed with sandy soil, and seeds of cucumber (var: Sagami-hanjiro) were sowed therein. Cultivation was carried out in a greenhouse for 8 days. Onto the resulting seedlings having cotyledons, the test compound formulated in emulsifiable concentrate or wettable powder and diluted with water was sprayed at a rate of 10 ml per pot. […] Ten days thereafter, the infectious state of the plants was observed.
(§3) The disease severity was calculated according to the following equation: [formula]
(§4) The prevention value was calculated according to the following equation: [formula]

[2] = tested on: apple (var: Kogyoku); assay: Phytotoxicity to crop plants (Experiment 9), apple; type: in vivo; parameters: key: -: No abnormality; +: Abnormality due to phytotoxicity observed in a part of crop plants; ++: Abnormality due to phytotoxicity observed in entire crop plants; +++: Crop plants withered due to phytotoxicity
Source text: (§1) Phytotoxicity to crop plants:-

[3] = tested on: peanut (var: Chiba hanryusei); assay: Phytotoxicity to crop plants (Experiment 9), peanut; type: in vivo; parameters: key: -: No abnormality; +: Abnormality due to phytotoxicity observed in a part of crop plants; ++: Abnormality due to phytotoxicity observed in entire crop plants; +++: Crop plants withered due to phytotoxicity; details: spray, 1000 ppm active ingredient, 10 days
Source text: as §1

[4] = tested on: drug-sensitive strain of Cercospora beticola; details: in Beta vulgaris, 240 h, read-out: Prevention value when inoculated with drug-sensitive strain (%)
Method: as §3, §4
(§5) Preventive effect on cercospora leaf spot of sugarbeet (Cercospora beticola):-A flower pot of 90 ml volume was filled with sandy soil, and seeds of sugarbeet (var: Detroit dark red) were sowed therein. Cultivation was carried out in a greenhouse for 20 days. Onto the resulting seedlings, the test compound formulated in emulsifiable concentrate or wettable powder and diluted with water was sprayed at a rate of 10 ml per pot. […] The pot was covered with a polyvinyl chloride sheet to make a condition of high humidity, and cultivation was continued in the greenhouse for 10 days.

[5] = tested on: wheat (var: Norin No. 61); assay: Phytotoxicity to crop plants (Experiment 9), wheat; type: in vivo; parameters: key: -: No abnormality; +: Abnormality due to phytotoxicity observed in a part of crop plants; ++: Abnormality due to phytotoxicity observed in entire crop plants; +++: Crop plants withered due to phytotoxicity
Source text: as §1

[6] = tested on: drug-resistant strain of Cercospora beticola; details: in Beta vulgaris, 240 h, read-out: Prevention value when inoculated with drug-resistant strain (%)
Method: as §3, §4, §5

[7] = tested on: drug-resistant strain of Sphaerotheca fuliginea; details: Podosphaera fuliginea, in Cucumis sativus, 240 h, read-out: Prevention value when inoculated with drug-resistant strain (%)
Method: as §2, §3, §4

[8] = tested on: drug-resistant strain of Cercospora arachidicola; details: peanut seedlings, spray, 10 days
Method: as §3, §4
(§6) Preventive effect on brown leaf-spot of peanut (Cercospora arachidicola):-
(§7) A plastic pot of 90 ml volume was filled with sandy soil, and seeds of peanut (var: Chiba hanryusei) were sowed therein. Cultivation was carried out in a greenhouse for 14 days. Onto the resulting seedlings, the test compound formulated in emulsifiable concentrate or wettable powder and diluted with water was sprayed at a rate of 10 ml per pot. […] The resulting plants were covered with a polyvinyl chloride sheet to make a humide condition and cultivated in the greenhouse for 10 days.

[9] = tested on: drug-resistant strain of Penicillium italicum; assay: Preventive effect on green mold of orange (Experiment 7), drug-resistant strain; details: orange fruits immersed for 1 minute, 200 ppm active ingredient, 24 days
[10] = tested on: drug-resistant strain of Botrytis cinerea; assay: Preventive effect on gray mold of cucumber (Experiment 5), drug-resistant strain; details: cucumber seedlings, spray, mycelial disks, 20°C for 3 days
Method: as §3, §4
(§8) Preventive effect on gray mold of cucumber (Botrytis cinerea):-Plastic pots of 90 ml volume was filled with sandy soil, and seeds of cucumber (var: Sagami-hanjiro) were sowed therein. Cultivation was carried out in a greenhouse for 8 days to obtain cucumber seedlings expanding cotyledons. Onto the resulting seedlings, the test compound formulated in emulsifiable concentrate or wettable powder and diluted with water was sprayed at a rate of 10 ml per pot. […] After the plants were infected by incubating under high humidity at 20°C for 3 days, the rates of disease severity were observed.

[11] = tested on: drug-resistant strain of Venturia nashicola; assay: Preventive effect on scab of pear (Experiment 3), drug-resistant strain; details: pear seedlings, spray, 200 ppm active ingredient
Method: as §3, §4
(§9) Preventive effect on scab of pear (Venturia nashicola):-
(§10) A plastic pot of 90 ml volume was filled with sandy soil, and seeds of pear (var: Chojuro) were sowed therein. Cultivation was carried out in a greenhouse for 20 days. Onto the resulting seedlings, the test compound formulated in emulsifiable concentrate or wettable powder and diluted with water was sprayed at a rate of 10 ml per pot. […] The resulting plants were placed at 20°C under a condition of high humidity for 3 days and then at 20°C under irradiation with a fluorescent lamp for 20 days.

[12] = tested on: drug-sensitive strain of Venturia nashicola; assay: Preventive effect on scab of pear (Experiment 3), drug-sensitive strain; details: pear seedlings, spray, 200 ppm active ingredient
Method: as §3, §4, §9, §10

[13] = tested on: drug-sensitive strain of Cercospora arachidicola; details: peanut seedlings, spray, 10 days
Method: as §3, §4, §6, §7

[14] = tested on: drug-sensitive strain of Penicillium italicum; assay: Preventive effect on green mold of orange (Experiment 7), drug-sensitive strain; details: orange fruits immersed for 1 minute, 200 ppm active ingredient, 24 days
[15] = tested on: drug-resistant strain of Mycosphaerella melonis; details: cucumber seedlings, spray, 200 ppm active ingredient, 25°C for 4 days
Method: as §3, §4
(§11) Preventive effect on gummy stem blight of cucumber (Mycosphaerella melonis):-Plastic pots of 90 ml volume was filled with sandy soil, and seeds of cucumber (var: Sagami-hanjiro) were sowed therein. Cultivation was carried out in a greenhouse for 8 days to obtain cucumber seedlings expanding cotyledons. Onto the resulting seedlings, the test compound formulated in emulsifiable concentrate or wettable powder and diluted with water was sprayed at a rate of 10 ml per pot. […] After the plants were infected by incubating under high humidity at 25°C for 4 days, the rates of disease severity were observed.

[16] = tested on: drug-sensitive strain of Mycosphaerella melonis; details: cucumber seedlings, spray, 200 ppm active ingredient, 25°C for 4 days
Method: as §3, §4, §11

[17] = tested on: drug-sensitive strain of Botrytis cinerea; assay: Preventive effect on gray mold of cucumber (Experiment 5), drug-sensitive strain; details: cucumber seedlings, spray, mycelial disks, 20°C for 3 days
Method: as §3, §4, §8

[18] = tested on: Pyricularia oryzae; type: in vivo
[19] = spray, 1000 ppm active ingredient, 10 days

Structure (SMILES)	pest or weed control at 200 ppm [1] [%]	Phytotoxicity Peanut [3]	pest or weed control at 200 ppm [4] [%]	pest or weed control at 200 ppm [6] [%]	pest or weed control at 200 ppm [7] [%]	Prevention value when inoculated with drug-resistant strain (%) ([10]; 200 ppm active ingredient)	Prevention value when inoculated with drug-resistant strain (%) [15] [%]	Prevention value when inoculated with drug-sensitive strain (%) [16] [%]	Prevention value when inoculated with drug-sensitive strain (%) ([17]; 200 ppm active ingredient)	Phytotoxicity Apple [2, 19]	Phytotoxicity Wheat [5, 19]	also measured
O=C(Nc1cccc(Cl)c1)OCC#CCCl	0	++	0	34	25							Phytotoxicity Apple ([2]; in vivo): ++; Phytotoxicity Wheat ([5]; in vivo): -
CCCCNC(=O)n1c(NC(=O)OC)nc2ccccc21 [Benomyl, methyl 1-(butylcarbamoyl)benzimidazol-2-ylcarba-mate]	100		100	0	0	0	0	100	100			Prevention value when inoculated with drug-resistant strain (%) ([8]; 200 ppm active ingredient): 0%; Prevention value when inoculated with drug-resistant strain (%) [9]: 0%; Prevention value when inoculated with drug-resistant strain (%) [11]: 0%; Prevention value when inoculated with drug-sensitive strain (%) [12]: 100%; Prevention value when inoculated with drug-sensitive strain (%) ([13]; 200 ppm active ingredient): 100%; Prevention value when inoculated with drug-sensitive strain (%) [14]: 100%
O=C(Nc1cccc(Cl)c1)OCCCl [CEPC]	0	++	0	0	0					++	-	
COC(=O)Nc1nc2ccccc2[nH]1 [Carbendazim, methyl benz-imidazol-2-ylcarbamate]	100		100	0	0							
C#CC(C)OC(=O)Nc1cccc(Cl)c1 (centres unmarked) [Chlorbufam, 1-methyl-2-propynyl N-(3-chlorophenyl)carbamate]	0		0	0	0							
CC(C)OC(=O)Nc1cccc(Cl)c1 [Chlorpropham, isopropyl N-(3-chlorophenyl)carbamate]	0		0	0	0							
CCOc1c(C)cc(NC(=S)OCCF)cc1C [Compound No. 9]	0	-	0	100	100	100	94	0	0	-	-	Prevention value when inoculated with drug-resistant strain (%) ([8]; 500 ppm active ingredient): 100%; Prevention value when inoculated with drug-resistant strain (%) [9]: 94%; Prevention value when inoculated with drug-sensitive strain (%) ([13]; 500 ppm active ingredient): 0%; Prevention value when inoculated with drug-sensitive strain (%) [14]: 0%
CCOc1c(Cl)cc(NC(=S)OC)cc1COC [Compound No. 13]		-				100	100	0	0	-	-	Prevention value when inoculated with drug-resistant strain (%) ([8]; 200 ppm active ingredient): 97%; Prevention value when inoculated with drug-sensitive strain (%) ([13]; 200 ppm active ingredient): 0%; Prevention value (%) ([18]; rice seedlings of 3-leaf stage, spray, 1000 ppm active ingredient, 28°C for 3 days): 97%
CCOc1c(Cl)cc(NC(=S)OC(C)C)cc1COC [Compound No. 14, (3-chloro-4-ethoxy-5-methoxymethyl)thiocarbanilic acid O-isopropyl ester]	0	-			100	100	100	0	0	-	-	pest or weed control at 500 ppm [4]: 0%; pest or weed control at 500 ppm [6]: 100%
C=CCOC(=O)c1cc(NC(=S)OC)cc(COC)c1OCC [Compound No. 25, (3-methoxymethyl-4-ethoxy-5-allyloxycarbonyl)thiocarbanilic acid O-methyl ester]												Prevention value when inoculated with drug-resistant strain (%) ([10]; 500 ppm active ingredient): 100%; Prevention value when inoculated with drug-sensitive strain (%) ([17]; 500 ppm active ingredient): 0%
CCOc1cc(NC(=S)OC)cc(C=NOC)c1OCC [Compound No. 29, (3,4-diethoxy-5-methoxyiminomethyl)thiocarbanilic acid O-methyl ester]												Prevention value when inoculated with drug-resistant strain (%) ([10]; 500 ppm active ingredient): 100%; Prevention value when inoculated with drug-sensitive strain (%) ([17]; 500 ppm active ingredient): 0%
CCOP(=O)(Sc1ccccc1)Sc1ccccc1 [Edifenphos]												Prevention value (%) ([18]; in vivo): 97%
CC(C)OC(=O)Nc1ccccc1 [Propham, isopropyl N-phenylcarbamate]	0		0	0	0							
COC(=O)Nc1ccc(Cl)c(Cl)c1 [Swep]		+								++	++	
c1ccc2[nH]c(-c3cscn3)nc2c1 [Thiabendazole, 2-(4-thiazolyl)benzimidazole]						0			100			
COC(=O)NC(=S)Nc1ccccc1NC(=S)NC(=O)OC [Thiophanate-methyl, 1,2-bis(3-methoxycarbonyl-2-thioureido)benzene]	100		100	0	0	0	0	100	100			Prevention value when inoculated with drug-resistant strain (%) ([8]; 200 ppm active ingredient): 0%; Prevention value when inoculated with drug-resistant strain (%) [9]: 0%; Prevention value when inoculated with drug-resistant strain (%) [11]: 0%; Prevention value when inoculated with drug-sensitive strain (%) [12]: 100%; Prevention value when inoculated with drug-sensitive strain (%) ([13]; 200 ppm active ingredient): 100%; Prevention value when inoculated with drug-sensitive strain (%) [14]: 100%
